In patent US7579378B2, “Sulfonamido compounds that antagonize the vanilloid TRPV1 receptor” (Pharmeste S.R.L., priority 2004, dated 2009):

Assays:
[1] = target: T1, TRPV1 expressing rat trigeminal neurons (Rattus norvegicus, UniProt O35433); assay: Ca2+ fluorescence measurements in cultured rat trigeminal ganglia neurons (capsaicin-induced calcium mobilisation); format: cell-based; conditions: for IC50: against capsaicin (0.1 μM)-induced calcium mobilisation, 10 minutes incubation prior to capsaicin, mean and 95% fiducial limits
T1 construct: The ganglia were then dissociated into single cells; endogenous in cells; host or cells: primary cultured trigeminal ganglia neurons from newborn rats
T1 sequence (O35433 whole entry): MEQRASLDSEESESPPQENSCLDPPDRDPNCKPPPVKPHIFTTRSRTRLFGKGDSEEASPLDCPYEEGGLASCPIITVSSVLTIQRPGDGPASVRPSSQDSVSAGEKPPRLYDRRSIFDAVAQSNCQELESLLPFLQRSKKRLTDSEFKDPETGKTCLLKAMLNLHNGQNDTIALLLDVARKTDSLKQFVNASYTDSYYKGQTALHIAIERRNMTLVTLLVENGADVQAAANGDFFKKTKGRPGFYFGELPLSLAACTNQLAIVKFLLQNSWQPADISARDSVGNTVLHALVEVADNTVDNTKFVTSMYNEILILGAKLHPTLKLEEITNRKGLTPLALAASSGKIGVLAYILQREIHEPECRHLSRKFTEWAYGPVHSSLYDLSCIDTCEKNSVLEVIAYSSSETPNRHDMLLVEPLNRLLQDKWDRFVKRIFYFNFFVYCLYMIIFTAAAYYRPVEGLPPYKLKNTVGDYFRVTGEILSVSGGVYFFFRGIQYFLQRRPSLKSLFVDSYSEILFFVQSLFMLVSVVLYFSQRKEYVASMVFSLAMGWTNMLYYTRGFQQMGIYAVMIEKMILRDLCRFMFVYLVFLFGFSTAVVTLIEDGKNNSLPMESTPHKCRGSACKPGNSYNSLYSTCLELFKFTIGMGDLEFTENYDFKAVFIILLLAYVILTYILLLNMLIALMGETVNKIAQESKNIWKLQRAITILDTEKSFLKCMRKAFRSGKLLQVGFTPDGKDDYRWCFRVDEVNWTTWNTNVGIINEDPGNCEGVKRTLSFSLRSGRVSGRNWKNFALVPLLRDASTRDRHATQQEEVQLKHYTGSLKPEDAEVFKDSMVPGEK
Description: Newborn rats (2 days old) were terminally anaesthetized and decapitated. The trigeminal ganglia were removed and rapidly placed in cold phosphate buffered solution (PBS) before being transferred to collagenase/dispase (1 mg/ml dissolved in Ca^2+—Mg^2+-free PBS) for 35 min at 37° C. (Rigoni et al, 2003). After the enzymatic treatment ganglia were rinsed three times with Ca^2+—Mg^2+-free PBS and then placed in 2 ml of cold DMEM supplemented with 10% foetal bovine serum (FBS, heat inactivated), 2 mM L-glutamine, 100 u/ml penicillin and […] streptomycin. The ganglia were then dissociated into single cells by several passages through a series of syringe needles (23 G down to 25 G). Finally, the complex of medium and ganglia cells were sieved through a […] filter to remove debris and topped up with 8 ml of DMEM medium and centrifuged (200×g for 5 min). The final cell pellet was re-suspended in DMEM medium (supplemented with 100 ng/ml mouse Nerve Growth Factor (mouse-NGF-7S) and cytosine-b-D-arabino-furanoside free base (ARA-C) 2.5 mM). Cells were plated on poly-L-lysine (8.3 mM) and laminin (5 mM) coated 25 mm glass cover slips and kept for 2 to 5 days at 37° C. in a humidified incubator gassed with 5% CO2 and air. Plated neurons were loaded with Fura-2-AM-ester (3 μM) in Ca^2+ buffer solution of the following composition (mM): CaCl2 1.4, KCl 5.4, MgSO4 0.4, NaCl 135, D-glucose 5, HEPES 10 with BSA 0.1%, at pH 7.4, for 40 min at 37° C., washed twice with the Ca^2+ buffer solution and transferred to a chamber on the stage of Nikon eclipse TE300 microscope. The dye was excited at 340 and 380 nm to indicate relative [Ca^2+]i changes by the F340/F380 ratio recorded with a dynamic image analysis system (Laboratory Automation 2.0, RCS, Florence, Italy). Capsaicin (0.1 μM) and ionomycin (5 μM) were added to the chamber. A calibration curve using a buffer containing Fura-2-AM-ester and determinant concentrations of free Ca^2+ (Kudo et al., 1986) was used to convert the data obtained from F340/F380 ratio to [Ca^2+]i (nM).
The effects of all compounds were tested against capsaicin-induced calcium mobilisation. Antagonistic compounds were incubated for 10 minutes prior to the capsaicin challenge. The inhibitory effect of the TRPV1 antagonist, capsazepine, was also tested.

[2] = test system: capsaicin-induced wiping behaviour; assay: Wiping test in rats (capsaicin-induced wiping); format: in vivo, rat
Description: The irritant effect (induction of wiping movements) of capsaicin was assessed by applying capsaicin 3 μg/eye (10 μl) on the rat conjunctiva and the number of wiping movements was recorded during the 60 sec period that followed the application. In other set of experiments, rats were treated intraperitoneally with diverse doses of 14 and capsaicin-induced wiping was studied.

[3] = target: T2, TRPV1 receptor expressed in rat spinal cord (Rattus norvegicus, UniProt O35433); assay: [3H]-RTX competition binding assay; conditions: for Ki: [3H]-RTX (0.4 nM) competition, rat spinal cord membranes, mean and 95% fiducial limits; for affinity for the TRPV1 receptor: in vitro, summary statement
T2 construct: spinal cord was removed and disrupted using a Polytron tissue homogenizer; from tissue; host or cells: rat spinal cord membranes (Sprague-Dawley)
T2 sequence (O35433 whole entry): as above
Description: Male Sprague-Dawley rats with body weight between 250 to 350 g at the time for testing were used. For binding assays rats were sacrificed by decapitation under anesthesia and spinal cord was removed and disrupted using a Polytron tissue homogenizer in ice cold buffer containing 5 mM KCl, 5.8 mM NaCl, 0.75 mM CaCl2, 2 mM MgCl2, 320 mM sucrose, 10 mM Hepes, pH 8.6 (Szallasi and Blunberg, 1992; 1993). Tissue homogenized was centrifuged at 1000×g for 10 min at 4° C. and the sumatant was centrifuged again at 35000×g for 30 min at 4° C. (Beckman Avanti J25). The pellet was resuspended in the same buffer as described above and used in binding experiments. In saturation experiments, 150 μg protein/sample from membrane suspensions were incubated with ([^3H]-Resiniferatoxin, Perkin Elmer, Boston, Mass.) [^3H]-RTX (0.003-3 nM) in the assay buffer containing 0.25 mg/ml fatty acid-free bovine serum albumin at 37° C. for 60 min. In competition experiments, the membranes were incubated at 37° C. for 60 min with [^3H]RTX (0.4 nM) and increasing concentrations of examined compounds in the range from 0.1 nM to 3 μM. Non specific binding was defined in the presence of 1 μM RTX. After incubation the reaction mixture was cooled at 0° C. and incubated with bovine α1-acid glycoprotein (200 μg per tube) for 15 min to reduce non-specific RTX binding. Membrane-bound RTX was separated from the free through the centrifugation of the samples at 18500×g for 15 min. The tip of the microcentrifuge tube containing the pellet was cut off and the radioactivity was determined by scintillation counting (Packard 2500 TR). The protein concentration was determined according to a Bio-Rad method with bovine serum albumin as a standard reference (Bradford, 1976). Saturation and competition studies were analyzed with the program Ligand (Munson and Rodbard, 1980).

| SMILES | IC50 [1] | Ki [3] | affinity for the TRPV1 receptor [3] | melting point | also measured |
| --- | --- | --- | --- | --- | --- |
| COc1cc(CNC(=O)CCCC/C=C/C(C)C)ccc1O [Capsaicin, capsaicin, reference compound] |  |  |  |  | rat trigeminal neuronal cells showing an increase in [Ca2+]i ([1]; capsaicin 0.1 μM): 87% |
| Oc1cc2c(cc1O)CN(C(=S)NCCc1ccc(Cl)cc1)CCC2 [Capsazepine, capsazepine, reference compound] | 2170 nM |  |  |  |  |
| COc1cc(CNS(=O)(=O)c2ccc(NC(=S)NCc3ccc(C(C)(C)C)cc3)cc2)c(I)cc1O [Compound 14, N-(4-t-butyl-benzyl)-N′-[4-(2-iodo-4-hydroxy-5-methoxy-benzyl)aminosulfonyl]phenyl thiourea] | 60 nM | 90 nM | significantly greater than that of the classic TRPV1 receptor antagonist, capsazepine |  | inhibition of capsaicin-induced wiping behaviour ([2]; 1 mg/kg intraperitoneal, 60 minutes prior to the capsaicin challenge (3 μg/eye)): 24%; effect on capsaicin-induced wiping behaviour ([2]; intraperitoneal, 60 minutes prior to the capsaicin challenge, diverse doses): dose dependent reduction |
| COc1cc(CNS(=O)(=O)c2ccc(NC(=S)NCc3ccc(C(F)(F)F)cc3)cc2)c(Cl)cc1O [Compound 19, N-(4-trifluoromethyl-benzyl)-N′-[4-(2-chloro-4-hydroxy-5-methoxy-benzyl)aminosulfonyl]phenyl thiourea] | 270 nM | 756 nM | high affinity | 122 °C |  |
| COc1cc(CNS(=O)(=O)c2ccc(NC(=S)NCc3ccc(C(C)(C)C)cc3)cc2)c(Br)cc1O [Compound 20, N-(4-t-butyl-benzyl)-N′-[4-(2-bromo-4-hydroxy-5-methoxy-benzyl)aminosulfonyl]phenyl thiourea] | 212 nM | 493 nM | high affinity |  |  |
| COc1cc(CNS(=O)(=O)c2ccc(CCNC(=S)NCc3ccc(C(C)(C)C)cc3)cc2)c(I)cc1O [Compound 32, N-(4-t-butyl-benzyl)-N′-[4-(2-iodo-4-hydroxy-5-methoxy-benzyl)aminosulfonyl-2-phenylethyl]thiourea] |  |  |  | 195 °C |  |
| COc1cc(CNS(=O)(=O)c2ccc(CCNC(=S)NCc3ccc(C(F)(F)F)cc3)cc2)c(I)cc1O [Compound 33, N-(4-trifluoromethyl-benzyl)-N′-[4-(2-iodo-4-hydroxy-5-methoxy-benzyl)aminosulfonyl-2-phenylethyl]thiourea] |  |  |  | 186 °C |  |
